This is an account of results in patent US20240279302A1, “OLFACTORY RECEPTOR EXPRESSING METHOD AND RESPONSE MEASUREMENT METHOD” (Kao Corporation, priority 2021, published 2024).

Entries after “also recorded” stand apart in the source; their conditions may differ.

The target of experiment [1] is T1, consensus 10A2, (c) Ortholog (Homo sapiens, UniProt Q9H208, A297G/C30S/G257S/H207R/I240V/M268V/N222H/T20I/V292F).
T1 construct: expressed in transfected cells; host or cells: HEK293
As to the kind of experiment: Luciferase assay (odorant response). The experiment is classed as cell-based. As to the method: (§1) For luciferase assay, a reaction solution was prepared according to composition shown in Table 4, left standing for 20 minutes in a clean bench, and then added to each well of a 96-well plate (Becton, Dickinson and Company). Subsequently, 100 μL of HEK293 cells suspended in DMEM (Nacalai Tesque, Inc.) was inoculated at 2×10^5 cells/cm^2 to each well, and cultured for 24 hours in an incubator kept at 37° C. and 5% CO2. Cells expressing no olfactory receptor (Mock) were provided as a control.
(§2) The medium was removed from the cultures prepared in 2), and 75 μL of a test substance solution with a predetermined concentration prepared with a fresh medium was added thereto. The cells were cultured for 4 hours in a CO2 incubator and the luciferase gene was sufficiently expresses in the cells. Luciferase activity was measured using Dual-Glo™ luciferase assay system (Promega Corp.) in accordance with the operation manual of the product. A luminescence value derived from firefly luciferase induced by test substance stimulation in each well of the 96-well plate was divided by a luminescence value derived from Renilla luciferase to calculate a signal, which was then used in analysis. The signal under each transfection condition was normalized with the signal under a stimulation-free condition defined as 0% and the signal by stimulation with 30 μM forskolin defined as 100%, and used as a response (%) in analysis.

Experiment [2] has as its target T2, consensus 10A4, (c) Ortholog (Homo sapiens, UniProt Q9H209, A244S/A267T/E4G/H132R/H139R/I140R/I51T/K296S/K303R/L305V/Q237K/Q264R/S141A/S155P/S269P/S279Y/S293L/S312P/T22S/V195L).
T2 construct: expressed in transfected cells; host or cells: HEK293
The experiment in a line: Luciferase assay (odorant response). The experiment is classed as cell-based. On the procedure:
as §1, §2

For experiment [3], the target named is T3, consensus OR10A2 variant of H43R, H207R, and K258T (Homo sapiens, UniProt Q9H208, A297G/C30S/G257S/H207R/H43R/I240V/K258T/M268V/N222H/T20I/V292F).
T3 construct: expressed in transfected cells; host or cells: HEK293
T3 sequence (Q9H208 with tags, fused parts or gaps with the stated changes): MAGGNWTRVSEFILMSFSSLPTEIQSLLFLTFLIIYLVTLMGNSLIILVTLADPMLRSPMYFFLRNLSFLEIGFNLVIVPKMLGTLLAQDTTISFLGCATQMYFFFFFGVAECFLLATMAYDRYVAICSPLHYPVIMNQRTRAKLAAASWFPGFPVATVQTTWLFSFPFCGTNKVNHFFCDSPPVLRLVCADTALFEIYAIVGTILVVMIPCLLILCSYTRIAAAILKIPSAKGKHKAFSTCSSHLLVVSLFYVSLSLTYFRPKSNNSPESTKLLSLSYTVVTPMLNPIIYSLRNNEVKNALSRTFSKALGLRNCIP
As to the kind of experiment: Luciferase assay (odorant response). The experiment is classed as cell-based. On the procedure:
as §1, §2
(§3) Whether responsiveness coinciding with difference among individuals in sensory evaluation would be obtained was tested by applying the consensus design (c) to each human olfactory receptor newly identified in FIGS. 5 and 6, and then introducing an amino acid sequence reported to have difference among individuals (FIG. 7).

Experiment [4] deals with T4, consensus 10A4 R262Q variant (Homo sapiens, UniProt Q9H209, A244S/A267T/E4G/H132R/H139R/I140R/I51T/K296S/K303R/L305V/Q237K/Q264R/R262Q/S141A/S155P/S269P/S279Y/S293L/S312P/T22S/V195L).
T4 construct: expressed in transfected cells; host or cells: HEK293
The experiment in a line: Luciferase assay (odorant response). It is filed as cell-based. As to the method:
as §1, §2, §3

For experiment [5], the target named is T5, consensus olfactory receptor 5C1 with N5K mutation (Homo sapiens, UniProt Q8NGR4, A10R/A30T/A50V/C35F/G245C/H231R/H313C/I178V/I206V/K177E/L166F/L6F/M255L/M47V/M55V/N23D/N5K/Q142R/Q307R/R131G/R8W/S194N/S238R/S288A/T114A/T219A/T34I/V17I/V235A).
T5 construct: expressed in transfected cells; host or cells: HEK293
T5 sequence (Q8NGR4 1-320 with the stated changes): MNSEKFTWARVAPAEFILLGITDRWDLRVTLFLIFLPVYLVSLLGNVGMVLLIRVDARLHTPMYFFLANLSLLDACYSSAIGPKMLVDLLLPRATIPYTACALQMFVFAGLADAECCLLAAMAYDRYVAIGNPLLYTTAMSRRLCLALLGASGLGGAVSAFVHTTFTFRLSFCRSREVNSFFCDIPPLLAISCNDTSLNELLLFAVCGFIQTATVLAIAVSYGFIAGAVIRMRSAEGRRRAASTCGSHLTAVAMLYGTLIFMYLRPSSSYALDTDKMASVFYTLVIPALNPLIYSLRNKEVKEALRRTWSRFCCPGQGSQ
As to the kind of experiment: Luciferase assay (odorant response). The experiment is classed as cell-based. The conditions noted are these: versus consensus 5C1. On the procedure:
as §1, §2, §3

Experiment [6] relates to 6Y1. The conditions noted are these: as disclosed in Non Patent Literature 2; cited from earlier work.
Experiment [7] addresses OR4E2 (Homo sapiens, UniProt Q8NGC2). The conditions noted are these: in the presence of a metal ion (JP-A-2020-513564); cited from earlier work.
Experiment [8] has as its target T6, OR2A25 (original human receptor) (Homo sapiens, UniProt A4D2G3).
T6 construct: expressed in transfected cells; host or cells: HEK293
As to the kind of experiment: Luciferase assay (odorant response). It is filed as cell-based. On the procedure:
as §1, §2

Experiment [9] deals with T7, consensus olfactory receptor 6B2 with R122C and C179R mutations (Homo sapiens, UniProt Q6IFH4, C161Y/C179R/C234R/E83D/G146A/H133Q/I215V/I48T/L135I/L142V/L17F/L255M/L256I/M157V/P138T/Q268R/Q89R/R122C/S64G/T78I/V136M/V15L/V166A/V250I/V281L/W219G).
T7 construct: expressed in transfected cells; host or cells: HEK293
T7 sequence (Q6IFH4 with tags, fused parts or gaps with the stated changes): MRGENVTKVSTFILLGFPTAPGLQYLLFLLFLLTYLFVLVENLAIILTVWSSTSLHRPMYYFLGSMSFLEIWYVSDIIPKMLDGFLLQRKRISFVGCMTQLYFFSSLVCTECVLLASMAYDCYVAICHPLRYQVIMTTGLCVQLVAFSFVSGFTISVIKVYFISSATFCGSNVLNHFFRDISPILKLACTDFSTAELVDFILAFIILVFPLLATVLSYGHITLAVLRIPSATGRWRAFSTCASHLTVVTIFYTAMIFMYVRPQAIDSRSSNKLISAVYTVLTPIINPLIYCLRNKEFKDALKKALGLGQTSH
The experiment in a line: Luciferase assay (odorant response). The experiment is classed as cell-based. To be noted: versus consensus 6B2. As to the method:
as §1, §2, §3

T2 sequence (Q9H209 1-315 with the stated changes): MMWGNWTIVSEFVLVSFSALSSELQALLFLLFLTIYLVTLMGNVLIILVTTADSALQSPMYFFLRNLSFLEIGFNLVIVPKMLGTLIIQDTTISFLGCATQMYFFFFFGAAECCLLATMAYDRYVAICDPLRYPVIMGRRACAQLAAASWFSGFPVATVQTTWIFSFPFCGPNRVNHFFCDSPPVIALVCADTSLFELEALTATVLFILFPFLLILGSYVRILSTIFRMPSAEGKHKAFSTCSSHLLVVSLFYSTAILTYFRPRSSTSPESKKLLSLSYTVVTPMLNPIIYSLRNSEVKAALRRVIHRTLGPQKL
T1 sequence (Q9H208 with tags, fused parts or gaps T20I/C30S/H207R/N222H/I240V/G257S/M268V/V292F/A297G): as the sequence (Q9H208 with tags, fused parts or gaps with the stated changes) above, with R57H, T272K counted along it
Sequence of OR4E2 (Q8NGC2 whole entry): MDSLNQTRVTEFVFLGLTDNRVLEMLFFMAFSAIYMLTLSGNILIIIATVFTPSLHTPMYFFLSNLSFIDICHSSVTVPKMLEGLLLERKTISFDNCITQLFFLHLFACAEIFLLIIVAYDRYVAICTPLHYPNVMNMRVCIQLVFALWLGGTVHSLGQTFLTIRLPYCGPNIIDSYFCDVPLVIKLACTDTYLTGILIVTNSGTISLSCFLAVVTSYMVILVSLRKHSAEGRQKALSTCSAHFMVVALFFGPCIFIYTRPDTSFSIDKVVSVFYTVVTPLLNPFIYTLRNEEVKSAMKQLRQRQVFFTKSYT
T6 sequence (A4D2G3 whole entry): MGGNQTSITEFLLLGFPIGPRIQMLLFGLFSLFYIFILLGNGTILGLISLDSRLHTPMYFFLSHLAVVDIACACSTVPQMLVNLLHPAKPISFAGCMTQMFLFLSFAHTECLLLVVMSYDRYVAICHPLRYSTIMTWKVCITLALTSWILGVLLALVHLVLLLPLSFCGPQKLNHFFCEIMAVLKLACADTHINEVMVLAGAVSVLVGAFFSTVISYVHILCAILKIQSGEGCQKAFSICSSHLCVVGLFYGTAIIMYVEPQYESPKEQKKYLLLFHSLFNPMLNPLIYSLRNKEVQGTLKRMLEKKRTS

For the molecule `CCCCCCC/C=C/C=O` [(E)-2-decenal], the “response of consensus 10A2” value in experiment [1] was “can recognize”. In [2], the “response of consensus 10A4” value was “can recognize; also recorded: lower responsiveness”. Besides, the “responsiveness of the 10A2 variant of H43R, H207R, and K258T” value in [3] is “markedly low responsiveness”. The “responsiveness of the 10A4 R262Q variant” value in experiment [4] was “no change in responsiveness”.
For `CCCCCCCCC/C=C/C=O` [(E)-2-dodecenal], in experiment [1], the “response of consensus 10A2” value is “can recognize”. In experiment [2], the “response of consensus 10A4” value is listed as “can recognize; also recorded: lower responsiveness”. Besides, the “responsiveness of the 10A2 variant of H43R, H207R, and K258T” value in experiment [3] is on record as “markedly low responsiveness”. Moreover, the “responsiveness of the 10A4 R262Q variant” value in experiment [4] was “no change in responsiveness”.
With `CC(C)=CCCC(C)=CC=O` [citral], the “responsiveness of consensus 5C1 with N5K” value in experiment [5] is given as “markedly reduced”.
In the case of `CC(=O)C(C)=O` [diacetyl], in [6], the “response of 6Y1” value is given as “responds”.
Turning to `C=CCSSSCC=C` [diallyl trisulfide], in [7], the “response of OR4E2” value is listed as “responds”.
For the molecule `CC(C)=CCC/C(C)=C/CO` [geraniol], the “response of 2A25 (ranking of affinity for 2 agonists)” value in experiment [8] is given as “responded to geraniol at a lower concentration in comparison with geranyl formate”.
For `CC(C)C=O` [isobutyraldehyde], the “responsiveness of consensus 6B2 with R122C and C179R” value in [9] is reported as “markedly reduced”.
